# Measured values as given in patent publication US6355640B1, “Pyrazolopyridine adenosine antagonists” (Fujisawa Pharmaceutical Co., Ltd., priority 1993, dated 2002).
# Marks after values point to notes of the source that are not given here.
# What was measured:
# [1] = system: cisplatin induced renal failure; assay: Test 2. Effect on Cisplatin-induced Renal Failure; assay type: in vivo; conditions: Male JCL:SD rats, cisplatin 4.5 mg/kg i.p. 60 minutes after first dose; test compound 0.1 mg/kg i.v. twice a day for 8 days; measured on the 8th day; mean; P < 0.05 vs control group
# Method: Male JCL:SD strain rats aged 9 weeks weighing 280-300 g received cisplatin (4.5 mg/kg) intraperitoneally. Normal rats were injected with an equal amount of saline instead of cisplatin. The effect of chronic intravenous administration of the test compound (0.1 mg/kg, twice a day) on cisplatin induced renal failure was investigated in rats. […] The plasma creatinine concentrations were measured in all rats on the 8th day.
# [2] = system: cisplatin induced renal failure; assay: Test 1. Effect on Cisplatin-induced Renal Failure; assay type: in vivo; conditions: Male JCL:SD rats, cisplatin 4.5 mg/kg i.p. at the same time as first dose; test compound 0.1 mg/kg i.v. twice a day for 3 days; measured on the 8th day; mean; p < 0.01 vs control group
# Method: Male JCL:SD strain rats aged 9 weeks weighing 280-300 g received cisplatin (4.5 mg/kg) intraperitoneally. Normal rats were injected with an equal amount of saline instead of cisplatin. The effect of repeated intravenous administration of the test compound (0.1 mg/kg, twice a day) on cisplatin induced renal failure was investigated in rats. Cisplatin was given at the same time of the first dose of the test compound (for the test group) or vehicle (saline) (for the control group), and the test compound or vehicle was given for 3 days. The plasma creatinine concentrations were measured in all rats on the 8th day.
SMILES,melting point [°C],other results
"O=C(O)CC1=C(n2nc(-c3c(-c4ccccc4)nn4ccccc34)ccc2=O)CCCC1 [Example 58, 3-[2-(2-carboxymethyl-1-cyclohexenyl)-3-oxo-2,3-dihydropyridazin-6-yl]-2-phenylpyrazolo[1,5-a]pyridine]",,serum creatinine [1]: 1.10* mg/dl
"O=C(O)CC1=C(n2nc(-c3c(-c4ccccc4)nn4ccccc34)ccc2=O)CCCCC1 [Example 19, 3-[2-(2-carboxymethyl-1-cycloheptenyl)-3-oxo-2,3-dihydropyridazin-6-yl]-2-phenylpyrazolo[1,5-a]-pyridine]",,serum creatinine [2]: 1.32** mg/dl
"CCOC(=O)[C@H]1CCC(=O)[C@@H](n2nc(-c3c(-c4ccccc4)nn4ccccc34)ccc2=O)C1 (relative stereo) [Example 16, cis-3-[2-(5-Ethoxycarbonyl-2-oxocyclohexyl)-3-oxo-2,3-dihydropyridazin-6-yl]-2-phenylpyrazolo[1,5-a]pyridine]",160 to 162,
"O=C(O)[C@H]1CCC[C@H](n2nc(-c3c(-c4ccccc4)nn4ccccc34)ccc2=O)C1 (relative stereo) [Example 41, trans-3-(2-(3-Carboxycyclohexyl)-3-oxo-2,3-dihydropyridazin-6-yl]-2-phenylpyrazolo[1,5-a]pyridine]",218 to 222,

# More lines, main results first:
melting point [°C],SMILES,other results
214,"N#CC1CCCCC1n1nc(-c2c(-c3ccccc3)nn3ccccc23)ccc1=O (stereo not shown) [Example 108, 3-[2-(2-cyanocyclohexyl)-3-oxo-2,3-dihydropyridazin-6-yl]-2-phenylpyrazolo[1,5-a]pyridine]",
145 to 147,"O=C(O)CCCC1=C(n2nc(-c3c(-c4ccccc4)nn4ccccc34)ccc2=O)CCCC1 [Example 53, 3-[2-{2-(3-Carboxypropyl)-1-cyclohexenyl}-3-oxo-2,3-dihydropyridazin-6-yl]-2-phenylpyrazolo[1,5-a]pyridine]",
225 to 227,"O=C(O)COc1cccc2c1CCC(n1nc(-c3c(-c4ccccc4)nn4ccccc34)ccc1=O)C2=O (stereo not shown) [Example 119, 3-[2-(1-Carboxymethoxy-5-oxo-5,6,7,8-tetrahydro-6-naphthyl)-3-oxo-2,3-dihydropyridazin-6-yl]-2-phenylpyrazolo[1,5-a]pyridine]",
